This assay has as its target T1, human PD-1 (Jurkat-PD-1 cells) / PE-labeled human PD-L1-Ig (Homo sapiens, UniProt Q15116).
T1 construct: expressed in transfected cells; host or cells: Jurkat cell line over-expressing human PD-1
Briefly: Jurkat-PD-1 Cell Binding High-Content Screening Assay (CBA); Jurkat hPD1-PDL1 assay. The following applies: Jurkat cell line over-expressing human PD-1; PE-labeled PD-L1-Ig 20 nM final; compound incubated 2 hours at 37° C.; read-out: Jurkat HPD1-PDL1 IC50. The protocol: The ability of the compounds of formula (I) to bind to PD-1 was investigated using a Jurkat-PD-1 Cell Binding High-Content Screening Assay.
Jurkat-PD-1 Cell Binding High-Content Screening Assay (CBA)
Phycoerythrin (PE) was covalently linked to the Ig epitope tag of human PD-L1-Ig and fluorescently-labeled PD-L1-Ig was used for binding studies with a Jurkat cell line over-expressing human PD-1 (Jurkat-PD-1). Briefly, 8×10^3 Jurkat-hPD-1 cells were seeded into 384 well plates in 20 μL of DMEM supplemented with 10% fetal calf serum. 100 nL of compound was added to cells followed by incubation at 37° C. for 2 hours. Then, 5 μL of PE-labeled PD-L1-Ig (20 nM final), diluted in DMEM supplemented with 10% fetal calf serum. […] Data was collected and processed using a Cell Insight NXT High Content Imager and associated software.

One may read the pIC50 as the IC50 on a negative log10 scale, so that one unit is a factor of ten.

pIC50: −log10 of the molar value. Positions of bridges follow the written chain, without caps; N, C: chain ends. Non-standard residues stand in square brackets, D forms with d. Residues, ends and D or L forms follow the SMILES beside them. *: point of attachment. Bip = N[C@@H](Cc1ccc(-c2ccccc2)cc1)C(=O)O; Phe(3-CN) = N#Cc1cccc(C[C@H](N)C(=O)O)c1; Phe(3-OMe) = COc1cccc(C[C@H](N)C(=O)O)c1; 1Nal = N[C@@H](Cc1cccc2ccccc12)C(=O)O; Val(3-OH) = CC(C)(O)[C@H](N)C(=O)O; NMeF = CN[C@@H](Cc1ccccc1)C(=O)O; 4Pal = N[C@@H](Cc1ccncc1)C(=O)O; Cha = N[C@@H](CC1CCCCC1)C(=O)O; Cit = NC(=O)NCCC[C@H](N)C(=O)O; Carboxymethyl = O=C(O)C*; NMeA = CN[C@@H](C)C(=O)O; Orn = NCCC[C@H](N)C(=O)O; Dab = NCC[C@H](N)C(=O)O; dAze = O=C(O)[C@H]1CCN1; Dap = NC[C@H](N)C(=O)O; Sar = CNCC(=O)O

T1 sequence (Q15116 25-288): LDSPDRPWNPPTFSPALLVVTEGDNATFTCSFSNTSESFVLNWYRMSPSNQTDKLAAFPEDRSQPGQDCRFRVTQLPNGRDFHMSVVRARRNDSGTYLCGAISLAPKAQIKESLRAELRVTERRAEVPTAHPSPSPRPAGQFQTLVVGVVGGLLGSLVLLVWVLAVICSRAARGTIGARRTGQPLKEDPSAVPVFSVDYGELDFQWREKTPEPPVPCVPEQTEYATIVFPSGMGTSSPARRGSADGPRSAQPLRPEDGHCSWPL

On to `CC(C)C[C@@H]1NC(=O)[C@H](Cc2c[nH]c3ccccc23)NC(=O)[C@H](CC(=O)O)NC(=O)[C@H](Cc2ccc(O)cc2)NC(=O)[C@H](Cc2ccccc2)NC(=O)CSC[C@@H](C(=O)NCC(N)=O)NC(=O)[C@H](CO)NC(=O)[C@H](C(C)C)NC(=O)[C@H](CC(C)C)NC(=O)[C@H](CCN)NC(=O)[C@H]2CCCN2C(=O)[C@H](CN)NC(=O)[C@H](C(C)C)NC(=O)[C@H](Cc2ccc(-c3ccccc3)cc2)NC1=O` [Example 1410] ({CH2CO}-FYDWL[Bip]V[Dap][dP][Dab]LVSCG-NH2; thioether N-14), for which the pIC50 was 6.85. The figure for `CC(C)C[C@@H]1NC(=O)[C@H](CCCCN)NC(=O)[C@H](Cc2ccccc2)N(C)C(=O)[C@H](C)N(C)C(=O)[C@H](CCCNC(=N)N)NC(=O)[C@H](Cc2ccc(-c3ccccc3)cc2)NC(=O)[C@H](C(C)C)NC(=O)[C@H](Cc2c[nH]c3ccccc23)NC(=O)[C@H](CC(=O)O)NC(=O)[C@H](Cc2ccc(O)cc2)NC(=O)[C@H](CC(N)=O)NC(=O)CSC[C@@H](C(=O)N[C@@H](C)C(N)=O)NC(=O)[C@H]([C@@H](C)O)NC(=O)[C@H](C(C)C)NC1=O` [Example 1385] ({CH2CO}-NYDWV[Bip]R[NMeA][NMeF]KLVTCA-NH2; thioether N-14) is 6.55; for `CC(C)C[C@@H]1NC(=O)[C@H](Cc2c[nH]c3ccccc23)NC(=O)[C@H](CC(=O)O)NC(=O)[C@H](Cc2ccc(O)cc2)NC(=O)[C@H](Cc2ccccc2)NC(=O)CSC[C@@H](C(=O)N[C@@H](C)C(N)=O)NC(=O)[C@H](CO)NC(=O)[C@H](C(C)C)NC(=O)[C@H](CC(C)C)NC(=O)[C@H](CC(N)=O)NC(=O)[C@H]2CCCN2C(=O)[C@H](C)N(C)C(=O)[C@H](CCCNC(=N)N)NC(=O)[C@H](Cc2ccc(-c3ccccc3)cc2)NC1=O` [Example 1027] ({CH2CO}-FYDWL[Bip]R[NMeA][dP]NLVSCA-NH2; thioether N-14) it is 7.30; for `CC(C)C[C@@H]1NC(=O)[C@H](CCCNC(=N)N)NC(=O)[C@H](Cc2ccccc2)N(C)C(=O)[C@H](C)N(C)C(=O)[C@H](CCCNC(=N)N)NC(=O)[C@H](Cc2ccc(-c3ccccc3)cc2)NC(=O)[C@H](C(C)C)NC(=O)[C@H](Cc2c[nH]c3ccccc23)NC(=O)[C@H](CC(=O)O)NC(=O)[C@H](Cc2ccc(O)cc2)NC(=O)[C@H](CC2CCCCC2)NC(=O)CSC[C@@H](C(=O)NCC(N)=O)NC(=O)[C@H](CO)NC(=O)[C@H](C(C)C)NC1=O` [Example 1248] ({CH2CO}-[Cha]YDWV[Bip]R[NMeA][NMeF]RLVSCG-NH2; thioether N-14) it is 6.44. In the case of `CC(C)C[C@@H]1NC(=O)[C@H](Cc2c[nH]c3ccccc23)NC(=O)[C@H](CC(=O)O)NC(=O)[C@H](Cc2cccc(C#N)c2)NC(=O)[C@H](Cc2ccncc2)NC(=O)CSC[C@@H](C(=O)N[C@@H](CCN)C(N)=O)NC(=O)[C@H](CO)NC(=O)[C@H](C(C)(C)O)NC(=O)[C@H](CC2CCCCC2)NC(=O)[C@H](CCN)NC(=O)[C@H]2CCCN2C(=O)[C@H](C)N(C)C(=O)[C@H](C(C)C)NC(=O)[C@H](Cc2ccc(-c3ccccc3)cc2)NC1=O` [Example 1183] ({CH2CO}-[4Pal][Phe(3-CN)]DWL[Bip]V[NMeA][dP][Dab][Cha][Val(3-OH)]SC[Dab]-NH2; thioether N-14) it was 7.40; in that of `CC(C)C[C@@H]1NC(=O)[C@H](CCCNC(=N)N)NC(=O)[C@H](Cc2ccccc2)N(C)C(=O)[C@H](C)N(C)C(=O)[C@H](CCCN)NC(=O)[C@H](Cc2ccc(-c3ccccc3)cc2)NC(=O)[C@H](C(C)C)NC(=O)[C@H](Cc2c[nH]c3ccccc23)NC(=O)[C@H](CC(=O)O)NC(=O)[C@H](Cc2ccc(O)cc2)NC(=O)[C@H](Cc2ccccc2)NC(=O)CSC[C@@H](C(=O)N[C@@H](C)C(N)=O)NC(=O)[C@H]([C@@H](C)O)NC(=O)[C@H](C(C)C)NC1=O` [Example 1346] ({CH2CO}-FYDWV[Bip][Orn][NMeA][NMeF]RLVTCA-NH2; thioether N-14), 6.51; in that of `CC(C)C[C@@H]1NC(=O)[C@H](Cc2c[nH]c3ccccc23)NC(=O)[C@H](CC(=O)O)NC(=O)[C@H](Cc2ccc(O)cc2)NC(=O)[C@H](Cc2ccccc2)NC(=O)CSC[C@@H](C(=O)N[C@@H](C)C(N)=O)NC(=O)[C@H](CO)NC(=O)[C@H](C(C)C)NC(=O)[C@H](CC(C)C)NC(=O)[C@H](CC(N)=O)NC(=O)[C@H]2CCN2C(=O)[C@H](C)N(C)C(=O)[C@H](C(C)C)NC(=O)[C@H](Cc2ccc(-c3ccccc3)cc2)NC1=O` [Example 1021] ({CH2CO}-FYDWL[Bip]V[NMeA][dAze]NLVSCA-NH2; thioether N-14), 7.40. The figure for `CC(C)C[C@@H]1NC(=O)[C@H](CCCNC(=N)N)NC(=O)[C@H](Cc2ccccc2)N(C)C(=O)[C@H](C)N(C)C(=O)[C@H](CCCNC(=N)N)NC(=O)[C@H](Cc2ccc(-c3ccccc3)cc2)NC(=O)[C@H](C(C)C)NC(=O)[C@H](Cc2cccc3ccccc23)NC(=O)[C@H](CC(=O)O)NC(=O)[C@H](Cc2ccc(O)cc2)NC(=O)[C@H](Cc2ccccc2)NC(=O)CSC[C@@H](C(=O)NCC(N)=O)NC(=O)[C@H](CO)NC(=O)[C@H](C(C)C)NC1=O` [Example 1240] ({CH2CO}-FYD[1Nal]V[Bip]R[NMeA][NMeF]RLVSCG-NH2; thioether N-14) is 6.77; for `CC(C)C[C@@H]1NC(=O)[C@H](Cc2c[nH]c3ccccc23)NC(=O)[C@H](CC(=O)O)NC(=O)[C@H](Cc2ccc(OCC(=O)O)cc2)NC(=O)[C@H](Cc2ccncc2)NC(=O)CSC[C@@H](C(=O)N[C@@H](CCN)C(N)=O)NC(=O)[C@H](CO)NC(=O)[C@H](C(C)(C)O)NC(=O)[C@H](CC2CCCCC2)NC(=O)[C@H](CCN)NC(=O)[C@H]2CCCN2C(=O)[C@H](C)N(C)C(=O)[C@H](CCCNC(N)=O)NC(=O)[C@H](Cc2ccc(-c3ccccc3)cc2)NC1=O` [Example 1181] ({CH2CO}-[4Pal]Y(Carboxymethyl)DWL[Bip][Cit][NMeA][dP][Dab][Cha][Val(3-OH)]SC[Dab]-NH2; thioether N-14) it is 7.00; for `CC(C)C[C@@H]1NC(=O)[C@H](Cc2c[nH]c3ccccc23)NC(=O)[C@H](CC(=O)O)NC(=O)[C@H](Cc2ccc(O)cc2)NC(=O)[C@H](Cc2ccccc2)NC(=O)CSC[C@@H](C(=O)N[C@@H](C)C(N)=O)NC(=O)[C@H]([C@@H](C)O)NC(=O)[C@H](CCCCN)NC(=O)[C@H](CC(C)C)NC(=O)[C@H](CC(N)=O)NC(=O)[C@H]2CCCN2C(=O)[C@H](C)N(C)C(=O)[C@H](C(C)C)NC(=O)[C@H](Cc2ccc(-c3ccccc3)cc2)NC1=O` [Example 1089] ({CH2CO}-FYDWL[Bip]V[NMeA][dP]NLKTCA-NH2; thioether N-14) it is 6.60. For `CC(C)C[C@@H]1NC(=O)[C@H](Cc2c[nH]c3ccccc23)NC(=O)[C@H](CC(=O)O)NC(=O)[C@H](Cc2ccc(O)cc2)NC(=O)[C@H](Cc2ccccc2)NC(=O)CSC[C@@H](C(=O)N[C@@H](CCCNC(=N)N)C(N)=O)NC(=O)[C@H](CO)NC(=O)[C@H](C(C)C)NC(=O)[C@H](CC(C)C)NC(=O)[C@H](CC(N)=O)NC(=O)CN(C)C(=O)[C@H](C)N(C)C(=O)[C@H](C(C)C)NC(=O)[C@H](Cc2ccc(-c3ccccc3)cc2)NC1=O` [Example 1254] ({CH2CO}-FYDWL[Bip]V[NMeA][Sar]NLVSCR-NH2; thioether N-14), the pIC50 is 6.07. On to `CC(C)C[C@@H]1NC(=O)[C@H](CCCCN)NC(=O)[C@H](Cc2ccccc2)N(C)C(=O)[C@H](C)N(C)C(=O)[C@H](CCCNC(=N)N)NC(=O)[C@H](Cc2ccc(-c3ccccc3)cc2)NC(=O)[C@H](C(C)C)NC(=O)[C@H](Cc2c[nH]c3ccccc23)NC(=O)[C@H](CC(=O)O)NC(=O)[C@H](Cc2ccc(O)cc2)NC(=O)[C@H](Cc2ccccc2)NC(=O)CSC[C@@H](C(=O)N[C@@H](CO)C(N)=O)NC(=O)[C@H]([C@@H](C)O)NC(=O)[C@H](C(C)C)NC1=O` [Example 1359] ({CH2CO}-FYDWV[Bip]R[NMeA][NMeF]KLVTCS-NH2; thioether N-14), for which the negative-log IC50 (pIC50) is 6.57. In the case of `COc1cccc(C[C@@H]2NC(=O)[C@H](CC(=O)O)NC(=O)[C@H](Cc3cccc(C#N)c3)NC(=O)[C@H](Cc3ccncc3)NC(=O)CSC[C@@H](C(=O)N[C@@H](C)C(N)=O)NC(=O)[C@H](CO)NC(=O)[C@H](C(C)C)NC(=O)[C@H](CC(C)C)NC(=O)[C@H](CC(N)=O)NC(=O)[C@H]3CCCN3C(=O)[C@H](C)N(C)C(=O)[C@H](C(C)C)NC(=O)[C@H](Cc3ccc(-c4ccccc4)cc3)NC(=O)[C@H](CC(C)C)NC2=O)c1` [Example 1388] ({CH2CO}-[4Pal][Phe(3-CN)]D[Phe(3-OMe)]L[Bip]V[NMeA][dP]NLVSCA-NH2; thioether N-14) it was 7.70; in that of `CC(C)C[C@@H]1NC(=O)[C@H](Cc2c[nH]c3ccccc23)NC(=O)[C@H](CC(=O)O)NC(=O)[C@H](Cc2ccc(O)cc2)NC(=O)[C@H](Cc2ccccc2)NC(=O)CSC[C@@H](C(=O)N[C@H](C)C(N)=O)NC(=O)[C@H](CO)NC(=O)[C@H](C(C)C)NC(=O)[C@H](CC(C)C)NC(=O)[C@H](CC(N)=O)NC(=O)CN(C)C(=O)[C@H](C)N(C)C(=O)[C@H](C(C)C)NC(=O)[C@H](Cc2ccc(-c3ccccc3)cc2)NC1=O` [Example 1151] ({CH2CO}-FYDWL[Bip]V[NMeA][Sar]NLVSC[dA]-NH2; thioether N-14), 6.15.

Values taken from US20240360178A1, “MACROCYCLIC IMMUNOMODULATORS” (Bristol-Myers Squibb Company, priority 2021, published 2024).
